Source: patent US20050148570A1, “Novel substituted alkane compounds and uses thereof” (priority 2001, published 2005)
Converted amounts (≈) assume the structure as drawn.

Experiments:
[1] = system: H. pylori; test: MIC, broth dilution method; assay type: cell-based
Method: (§1) Antibacterial activity can be determined by several standard methods well known by those skilled in the art, including disc diffusions methods, broth dilution minimal inhibitory concentration (MIC) methods, etc., including the detailed method outlined below. Cultures of bacteria are initially brought up from the freezer by streaking a loopful onto agar plates under the appropriate conditions. For instance stocks are streaked onto chocolate agar and then incubated for 18 hours at 35-37° C. in a 5% CO2 incubator. Five to 10 colonies are picked from the chocolate agar plate for subculture to Brain-Heart Infusion (BHI) broth or Mueller Hinton broth or BHI containing 4% serum and incubated under the appropriate conditions. The ability of the test compound to act as an antimicrobial is determined by the ability to inhibit bacterial, algae, or fungal growth in vitro. The optical density of the culture of organisms in the presence of an active compound is compared to the optical density of the same organism untreated. The activity of the compounds is described as either negative or the lowest concentration inhibiting growth.

[2] = system: M. catarrhalis; test: MIC, broth dilution method; assay type: cell-based
Method: as §1

[3] = system: C. diphtheriae; test: MIC, broth dilution method; assay type: cell-based
Method: as §1

[4] = system: H. influenzae; test: MIC, broth dilution method; assay type: cell-based
Method: as §1

[5] = system: E. faecalis; test: MIC, broth dilution method; assay type: cell-based
Method: as §1

[6] = system: S. aureus; test: MIC, broth dilution method; assay type: cell-based; conditions: for MIC: Staphylococcus aureus, read-out: Antibacterial Activity against S. aureus MIC
Method: as §1

[7] = system: M. smegimatis; test: MIC, broth dilution method; assay type: cell-based; conditions: for MIC: read-out: MIC Anti-Bacterial Activity
Method: as §1

[8] = system: S. pneumoniae; test: MIC, broth dilution method; assay type: cell-based
Method: as §1

[9] = system: S. epidermidis; test: MIC, broth dilution method; assay type: cell-based
Method: as §1

[10] = system: S. pyogenes; test: MIC, broth dilution method; assay type: cell-based
Method: as §1

[11] = system: methicillin-sensitive Staphylococcus aureus; test: Wound healing model (FIG. 1); assay type: in vivo; conditions: methicillin-susceptible Staphylococcus aureus; mice; composition applied topically twice daily; sampled 72 hours post-infection
Method: (§2) FIG. 1. Efficacy of a composition comprising the compound of Example 9 in the wound healing model. A defined inoculum of approximately 10^5 CFU of methicillin-sensitive Staphylococcus aureus in 20 μl culture medium was pipetted into a wound approximately 1 cm^2 created by removal of the epidermis from the shaved backs of mice. After 24 hours, the composition comprising Example 9, placebo control or positive control ointment was applied twice daily. Approximately, seventy two hours post-infection, the wound was sampled and appropriate dilutions plated on nutritive agars for determination of microbial burden. The number of colony forming units (CFU) of methicillin-sensitive Staphylococcus aureus per wound is shown.
(§3) The wound healing model, using methods generally known by those skilled in the art, is used to measure the efficacy of topically applied compounds in suitable vehicles against any bacteria, for example, Staphylococcus epidermis, Staphylococcus aureus, Streptococcus pyrogenes, Haemophilus influenzae, or mixtures thereof. By removing several epidermal layers by surgical procedure, a superficial wound of approximately 1 cm^2 was created. About 10^5cfu/20 ul of culture medium of any bacteria, for example, S aureus, was applied to the wound. […]

[12] = system: Staphylococcus epidermidis; test: Wound healing model (FIG. 3); assay type: in vivo; conditions: mice, composition applied topically twice daily, sampled 72 hours post-infection
Method: as §2, with “3.” for “1.”, “epidermis” for “aureus”
as §3

[13] = system: methicillin-resistant Staphylococcus aureus; test: Wound healing model (FIG. 2); assay type: in vivo; conditions: mice, composition applied topically twice daily, sampled 72 hours post-infection
Method: as §2, with “2.” for “1.”, “methicillin-resistant” for “methicillin-sensitive”
as §3

CCCCC1CC(c2ccc(O)c(C)c2)(c2ccc(O)c(C)c2)C1 [Example 2, 1,1-Bis(4-hydroxy-3-methylphenyl)-3-n-butyl-cyclobutane]
MIC ([1]; Helicobacter pylori, read-out: MIC Anti-Bacterial Activity): 16 µg/mL (≈ 49.3 µM)
MIC ([2]; Moraxella catarrhalis, read-out: MIC Anti-Bacterial Activity): 1 µg/mL (≈ 3.08 µM)
MIC ([3]; Corynebacterium diphtheriae, read-out: MIC Anti-Bacterial Activity): 1 µg/mL (≈ 3.08 µM)
MIC ([4]; Haemophilus influenzae, read-out: MIC Anti-Bacterial Activity): 1 µg/mL (≈ 3.08 µM)
MIC ([5]; Enterococcus faecalis, read-out: MIC Anti-Bacterial Activity): 2 µg/mL (≈ 6.16 µM)
MIC [6]: 1 µg/mL (≈ 3.08 µM)
MIC [7]: 2 µg/mL (≈ 6.16 µM)
MIC ([8]; Streptococcus pneumoniae, read-out: MIC Anti-Bacterial Activity): 6 µg/mL (≈ 18.5 µM)
MIC ([9]; Staphylococcus epidermidis, read-out: MIC Anti-Bacterial Activity): 1 µg/mL (≈ 3.08 µM)
MIC ([10]; Streptococcus pyogenes, read-out: MIC Anti-Bacterial Activity): 6 µg/mL (≈ 18.5 µM)
melting point: 135 to 137 °C

CCCCC1CC(c2ccc(O)c(Cl)c2)(c2ccc(O)c(Cl)c2)C1 [Example 8, 1,1-Bis(4-hydroxy-3-chloro-phenyl)-3-n-butyl-yclobutane]
MIC Anti-Bacterial Activity [1]: 31 µg/mL (≈ 84.9 µM)
MIC Anti-Bacterial Activity [2]: 1 µg/mL (≈ 2.74 µM)
MIC Anti-Bacterial Activity [3]: 1 µg/mL (≈ 2.74 µM)
MIC Anti-Bacterial Activity [4]: 3 µg/mL (≈ 8.21 µM)
MIC Anti-Bacterial Activity [5]: 1 µg/mL (≈ 2.74 µM)
Antibacterial Activity against S. aureus MIC ([6]; S. aureus): 0.5 µg/mL
MIC Anti-Bacterial Activity [7]: 1 µg/mL (≈ 2.74 µM)
MIC Anti-Bacterial Activity [8]: 3 µg/mL (≈ 8.21 µM)
MIC Anti-Bacterial Activity [9]: 1 µg/mL (≈ 2.74 µM)
MIC Anti-Bacterial Activity [10]: 13 µg/mL (≈ 35.6 µM)

CCCCCC(C)(c1ccc(O)c(C)c1)c1ccc(O)c(C)c1 [Example 9, 2,2-Bis(4-hydroxy-3-methylphenyl)heptane]
reducing the population levels of pathogenic bacteria in wound [11]: efficacious
MIC [6]: 1 µg/mL (≈ 3.2 µM)
MIC [7]: 2 µg/mL (≈ 6.4 µM)
reducing the population levels of pathogenic bacteria in wound [12]: efficacious
reducing the population levels of pathogenic bacteria in wound [13]: efficacious
